Laboratory results from publication PMC11858624, “Antioxidant and Tyrosinase-Inhibitory Activities and Biological Bioactivities of Flavonoid Derivatives from Quercus mongolica Pollen” (Molecules, 2025).

Legend:
[1] = DPPH radical scavenging antioxidant assay; details: for IC50: DPPH radical scavenging, 10 min incubation, PC = positive control ascorbic acid; for DPPH scavenging activity: at a concentration of 100 µM
Protocol: The antioxidant properties of compounds 1–18 isolated from the pollen of Q. mongolica were assessed through DPPH assay.
The radical scavenging activity of DPPH (Sigma-Aldrich) was hired for the antioxidant activity. For each assay, 10 mM of each compound isolated from the pollen of Q. mongolica (1 µL) was evaluated, followed by 49 µL of MeOH in each well. Subsequently, 50 µL of 0.3 mM DPPH solution (Sigma-Aldrich) was added. The final concentration was tested to 0.1 mM. The mixture was incubated for 10 min, and antioxidant activity was evaluated by measuring UV at 550 nm using a Dynatech MR 500 plate reader. […]

[2] = molecular target: mushroom tyrosinase (Agaricus bisporus, UniProt C7FF04); test: Tyrosinase inhibition assay (dopachrome formation, absorbance at 490 nm); format: biochemical; details: at a concentration of 100 µM
mushroom tyrosinase, sequence (C7FF04 1-392): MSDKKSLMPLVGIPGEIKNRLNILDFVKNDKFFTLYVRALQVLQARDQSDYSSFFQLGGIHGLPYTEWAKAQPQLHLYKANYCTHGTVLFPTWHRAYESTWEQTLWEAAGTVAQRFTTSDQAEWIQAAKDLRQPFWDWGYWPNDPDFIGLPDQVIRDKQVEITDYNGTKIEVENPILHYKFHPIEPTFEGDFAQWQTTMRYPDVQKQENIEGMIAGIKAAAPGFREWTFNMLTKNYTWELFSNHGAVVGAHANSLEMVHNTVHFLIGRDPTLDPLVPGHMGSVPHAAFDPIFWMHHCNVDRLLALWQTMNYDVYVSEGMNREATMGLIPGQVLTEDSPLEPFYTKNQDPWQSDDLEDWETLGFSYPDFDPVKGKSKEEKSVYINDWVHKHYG
mushroom tyrosinase, sequence (G1K3P4 1-150 partner): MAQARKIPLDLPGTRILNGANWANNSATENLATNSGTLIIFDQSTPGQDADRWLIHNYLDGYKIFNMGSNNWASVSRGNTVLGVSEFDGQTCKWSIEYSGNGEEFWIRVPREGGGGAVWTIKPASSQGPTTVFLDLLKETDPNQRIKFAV
Protocol: Tyrosinase is a crucial enzyme in melanin synthesis, participating as an oxidase in the initial steps of melanin formation.
Evaluation of tyrosinase-inhibitory activity was conducted using mushroom tyrosinase (Sigma-Aldrich). For each test, 10 mM of each compound isolated from the pollen of Q. mongolica (1 µL) was evaluated. A 50 µL portion of 1 mM tyrosine (Sigma-Aldrich) dissolved in phosphate-buffered saline was introduced into each well, followed by a 5 min incubation period. Mushroom tyrosinase was prepared to a final concentration of 0.1 U/mL in phosphate-buffered saline, and 49 µL of the prepared enzyme solution was added to the wells, resulting in a compound concentration of 0.1 mM. The mixture underwent a 15 min incubation, after which the production of dopachrome was evaluated by recording the absorbance at 490 nm using a Dynatech MR 500 plate reader (Dynatech, Charlottesville, VA, USA). […] The percentage inhibition for each sample was determined at concentrations of […]. The IC50 value was calculated as the concentration of the compound required to achieve 50% inhibition of tyrosinase activity.

Row | Structure (SMILES) | IC50 [1] | DPPH scavenging activity [1] | inhibition at 100 µM [2]
1 | COc1cc(-c2oc3cc(O)cc(O)c3c(=O)c2OC2OC(COC3OCC(O)C(O)C3O)C(O)C(O)C2OC(C)=O)ccc1O (stereo not shown) [Compound 1, mongolinodoside A] | > 100 µM |  | 
2 | O=c1c(OC2OC(CO)C(O)C(O)C2OC2OC(CO)C(O)C(O)C2O)c(-c2ccc(O)c(O)c2)oc2cc(O)cc(O)c12 (stereo not shown) [Compound 2, quercetin 3-sophoroside] | 34.3 µM | over 90% | 
3 | COc1cc(-c2oc3cc(O)cc(O)c3c(=O)c2OC2OC(CO)C(O)C(O)C2OC2OC(C)C(O)C(O)C2O)ccc1O (stereo not shown) [Compound 3, calendoflavoside] | > 100 µM |  | 
4 | O=c1c(OC2OC(CO)C(O)C(O)C2OC2OCC(O)C(O)C2O)c(-c2ccc(O)cc2)oc2cc(O)cc(O)c12 (stereo not shown) [Compound 4, leucoside] | > 100 µM |  | 
5 | O=c1c(OC2OC(CO)C(O)C(O)C2OC2OCC(O)C(O)C2O)c(-c2ccc(O)c(O)c2)oc2cc(O)cc(O)c12 (stereo not shown) [Compound 5, quercetin 3-sambubioside] | 18.4 µM | over 90% | 
6 | COc1cc(-c2oc3cc(O)cc(O)c3c(=O)c2OC2OC(COC3OCC(O)C(O)C3O)C(O)C(O)C2O)ccc1O [Compound 6, Isorhamnetin 3-O-β-D-xylopyranosyl (1→6)-β-D-glucopyranoside] | > 100 µM |  | 
7 | O=c1c(O[C@@H]2O[C@H](CO)[C@@H](O)[C@H](O)[C@H]2O)c(-c2ccc(O)cc2)oc2cc(O)cc(O)c12 [Compound 7, astragalin] | > 100 µM |  | 
8 | O=c1c(O[C@@H]2O[C@H](CO)[C@@H](O)[C@H](O)[C@H]2O)c(-c2ccc(O)c(O)c2)oc2cc(O)cc(O)c12 [Compound 8, isoquercetin] | 28.5 µM | over 90% | 
9 | COc1cc(-c2oc3cc(O)cc(O)c3c(=O)c2OC2OC(CO)C(O)C(O)C2O)ccc1O (stereo not shown) [Compound 9, isorhamnetin 3-glucoside] | > 100 µM |  | 
10 | COc1c(O)cc(O)c2c(=O)c(OC3OC(CO)C(O)C(O)C3O)c(-c3ccc(O)cc3)oc12 (stereo not shown) [Compound 10, 8-methoxykaempferol 3-glucoside] | > 100 µM |  | 
11 | COc1cc(-c2oc3c(OC)c(O)cc(O)c3c(=O)c2OC2OC(CO)C(O)C(O)C2O)ccc1O (stereo not shown) [Compound 11, limocitrin 3-glucoside] | > 100 µM |  | 
12 | O=c1c(O)c(-c2ccc(O)cc2)oc2cc(O)cc(O)c12 [Compound 12, kaempferol] | 42.4 µM | over 90% | > 70%
13 | COc1cc(-c2oc3cc(O)cc(O)c3c(=O)c2O)ccc1O [Compound 13, isorhamnetin] | 25.5 µM | over 90% | 
14 | COc1cc(-c2oc3c(OC)c(O)cc(O)c3c(=O)c2O)ccc1O [Compound 14, limocitrin] | 52.3 µM | over 90% | 
15 | O=c1cc(-c2ccc(O)cc2)oc2cc(O)cc(O)c12 [Compound 15, apigenin] | > 100 µM |  | 
16 | O=c1cc(-c2ccc(O)c(O)c2)oc2cc(O)cc(O)c12 [Compound 16, luteolin] | 9.7 µM | over 90% | > 50%
17 | O=C1C[C@@H](c2ccc(O)cc2)Oc2cc(O)cc(O)c21 [Compound 17, naringenin] | > 100 µM |  | 
18 | COc1ccc(-c2coc3cc4c(c(O)c3c2=O)C=CC(C)(C)O4)cc1 [Compound 18, 4′-methylalpinumisoflavone] | > 100 µM |  | 
19 | O=C1O[C@H]([C@@H](O)CO)C(O)=C1O [ascorbic acid, reference compound] | 28.5 µM |  | 
